Data from ChEMBL document CHEMBL1147398, “New structures and bioactivity patterns of bengazole alkaloids from a choristid marine sponge” (1993).

Tests used:
[1] = system: SK-MEL-5; test: Cytotoxicity against human SK-MEL-5 cells; format: functional
[2] = system: COLO 205; test: Cytotoxicity against human COLO205 cells; format: functional
[3] = read-out: LC50 (the source's name)

Compound: CCCCCCCCCCCCCC(=O)O[C@@H](c1cnco1)c1nc([C@@H](O)C[C@@H](O)[C@@H](O)[C@@H](C)O)co1 [BENGAZOLE A]
- GI50 [1]: 1.13 µM
- TGI [1]: 4.83 µM
- CC50 [1, 3]: 4.83 µM
- GI50 [2]: 0.181 µM
- TGI [2]: 1.5 µM
- CC50 [2, 3]: 5.25 µM
